# Data taken from patent US20150025236A1, “PROCESS FOR THE PREPARATION OF STABLE CRYSTALLINE FORM-I OF LINEZOLID, SUBSTANTIALLY FREE OF RESIDUAL SOLVENT” (Jubilant Life Sciences Limited, priority 2012, published 2015).
# Experiment: Stability study: determination of linezolid Form-II content in linezolid Form-I (polymorph status by XRD)
compound,measurement,setting,value
"CC(=O)NC[C@H]1CN(c2ccc(N3CCOCC3)c(F)c2)C(=O)O1 [Linezolid Form-I, (S)—N-[[3-(3-fluoro-4-morpholinylphenyl)-2-oxo-5-oxazolidinyl]methyl]acetamide]",Polymorphic stability (formation of polymorphic impurity Form-II),"containing residual solvent(s), though complying with the regulatory norms",undergoes transformation into Form II
same,Time stable during stability study,different conditions of relative humidity (RH) and temperature (Table-1),up to 12 months
same,Polymorphic stability (formation of polymorphic impurity Form-II),substantially free of solvent(s),"does not generate polymorphic impurity, Form-II"
